Marks after values point to notes of the source that are not given here.
Tested on: Botrytis cinerea
Experiment: Example A: in vivo preventive test on Botrytis cinerea (grey mould)
Details: 500 ppm of active ingredient; gherkin plants, preventive spray; evaluated 4 to 5 days after inoculation
Procedure: (§1) The young plants of gherkin are treated by spraying the active ingredient prepared as described above. Control plants are treated only with an aqueous solution of acetone/Dimethyl sulfoxide/Tween®. After 24 hours, the plants are contaminated by spraying the leaves with an aqueous suspension of Botrytis cinerea spores.
Molecule `CC(CF)(CF)C(O)(Cc1ccnc(Cl)c1F)Cn1cncn1` (centres unmarked) [Example I-61] has an Eff. % of 99%.

Tested on: Puccinia recondita
Experiment: Example B: in vivo preventive test on Puccinia recondita (brown rust on wheat)
Details: 100 ppm of active ingredient; wheat plants, preventive spray; evaluated 11 days after inoculation
Procedure: as §1, with “wheat” for “gherkin”, “Puccinia recondita” for “Botrytis cinerea”
Work on `OC(Cc1ccnnc1Cl)(Cn1cncn1)C1(Cl)CC1` (centres unmarked) [Example I-45] yielded an Eff. % of 97%.

Same assay, conditions: 500 ppm of active ingredient; wheat plants, preventive spray; evaluated 11 days after inoculation
Molecule `OC(CCc1ccc(Cl)cc1)(Cc1ccncc1Cl)Cn1cncn1` (racemic) [Example I-69] has an Eff. % of 98%. `CC(CF)(CF)C(O)(Cc1ccnc(Cl)c1F)Cn1cncn1` (centres unmarked) [Example I-61] gave an Eff. % of 98%.

Tested on: Pyrenophora teres
Experiment: Example C: in vivo preventive test on Pyrenophora teres (net blotch on barley)
Details: 500 ppm of active ingredient; barley plants, preventive spray; evaluated 14 days after inoculation
Procedure: as §1, with “barley” for “gherkin”, “Pyrenophora teres” for “Botrytis cinerea”
Work on `OC(CCc1ccc(Cl)cc1)(Cc1ccncc1Cl)Cn1cncn1` (racemic) [Example I-69] yielded an Eff. % of 93%. Work on `CC(CF)(CF)C(O)(Cc1ccnc(Cl)c1F)Cn1cncn1` (centres unmarked) [Example I-61] yielded an Eff. % of 93%.

Tested on: Septoria tritici
Experiment: Example D: in vivo preventive test on Septoria tritici (leaf spot on wheat)
Details: 100 ppm of active ingredient; wheat plants, preventive spray; evaluated 24 days after inoculation
Procedure: as §1, with “wheat” for “gherkin”, “Septoria tritici” for “Botrytis cinerea”
In the case of `OC(Cc1ccnnc1Cl)(Cn1cncn1)C1(Cl)CC1` (centres unmarked) [Example I-45], the Eff. % is reported as 100%.

Same assay, conditions: 500 ppm of active ingredient; wheat plants, preventive spray; evaluated 24 days after inoculation
For `OC(CCc1ccc(Cl)cc1)(Cc1ccncc1Cl)Cn1cncn1` (racemic) [Example I-69], the Eff. % was 100%. Work on `CC(CF)(CF)C(O)(Cc1ccnc(Cl)c1F)Cn1cncn1` (centres unmarked) [Example I-61] yielded an Eff. % of 100%.

Tested on: Sphaerotheca fuliginea
Experiment: Example E: in vivo preventive test on Sphaerotheca fuliginea (powdery mildew on cucurbits)
Details: 100 ppm of active ingredient; gherkin plants, preventive spray; evaluated 15 days after inoculation
Procedure: as §1, with “Sphaerotheca fuliginea” for “Botrytis cinerea”
In the case of `OC(Cc1ccnnc1Cl)(Cn1cncn1)C1(Cl)CC1` (centres unmarked) [Example I-45], the Eff. % is reported as 100%.

Same assay, conditions: 500 ppm of active ingredient; gherkin plants, preventive spray; evaluated 15 days after inoculation
`OC(CCc1ccc(Cl)cc1)(Cc1ccncc1Cl)Cn1cncn1` (racemic) [Example I-69] gave an Eff. % of 100%. Work on `CC(CF)(CF)C(O)(Cc1ccnc(Cl)c1F)Cn1cncn1` (centres unmarked) [Example I-61] yielded an Eff. % of 100%.

Tested on: Uromyces appendiculatus
Experiment: Example F: in vivo preventive test on Uromyces appendiculatus (bean rust)
Details: 100 ppm of active ingredient; bean plants, preventive spray; evaluated 11 days after inoculation
Procedure: as §1, with “bean” for “gherkin”, “Uromyces appendiculatus” for “Botrytis cinerea”
`OC(Cc1ccnnc1Cl)(Cn1cncn1)C1(Cl)CC1` (centres unmarked) [Example I-45] gave an Eff. % of 100%.

Same assay, conditions: 500 ppm of active ingredient; bean plants, preventive spray; evaluated 11 days after inoculation
Work on `OC(CCc1ccc(Cl)cc1)(Cc1ccncc1Cl)Cn1cncn1` (racemic) [Example I-69] yielded an Eff. % of 100%. In the case of `CC(CF)(CF)C(O)(Cc1ccnc(Cl)c1F)Cn1cncn1` (centres unmarked) [Example I-61], the Eff. % is reported as 100%.

Tested on: Blumeria graminis f. sp. hordei
Experiment: Example G: Blumeria test (barley)/preventive
Format: in vivo
Details: 500 ppm of active ingredient, preventive, evaluated 7 days after inoculation
Procedure: (§2) Solvent: 49 parts by weight of N,N-dimethylacetamide Emulsifier: 1 part by weight of alkylaryl polyglycol ether To produce a suitable preparation of active compound, 1 part by weight of active compound or active compound combination is mixed with the stated amounts of solvent and emulsifier, and the concentrate is diluted with water to the desired concentration. To test for preventive activity, young plants are sprayed with the preparation of active compound or active compound combination at the stated rate of application. After the spray coating has been dried, the plants are dusted with spores of Blumeria graminis f. sp. hordei.
With `OC(CCc1ccc(Cl)cc1)(Cc1ccncc1Cl)Cn1cncn1` (racemic) [Example I-69] the Eff. % was 100%. For `OC(Cc1ccnnc1Cl)(Cn1cncn1)C1(Cl)CC1` (centres unmarked) [Example I-45], the Eff. % was 100%. `CC(CF)(CF)C(O)(Cc1ccnc(Cl)c1F)Cn1cncn1` (centres unmarked) [Example I-61] showed an Eff. % of 100%.

Tested on: Fusarium culmorum
Experiment: Example H: Fusarium culmorum-test (wheat)/curative
Format: in vivo
Details: 500 ppm of active ingredient, curative, evaluated 5 days after inoculation
Procedure: (§3) Solvent: 49 parts by weight of N,N-dimethylacetamide
(§4) Emulsifier: 1 part by weight of alkylaryl polyglycol ether
(§5) To produce a suitable preparation of active compound, 1 part by weight of active compound or active compound combination is mixed with the stated amounts of solvent and emulsifier, and the concentrate is diluted with water to the desired concentration.
To test for curative activity, young plants are slightly injured by using a sandblast and afterwards they are sprayed with a conidia suspension of Fusarium culmorum and placed for 24 hours in a greenhouse under a translucent incubation cabinet at a temperature of approximately 22° C. and a relative atmospheric humidity of approximately 100% and are subsequently sprayed with the preparation of active compound at the stated rate of application.
After the spray coating has been dried, the plants remain in the greenhouse under translucent incubation cloches at a temperature of approximately 22° C. and a relative atmospheric humidity of approximately 100%.
(§6) The test is evaluated 5 days after the inoculation. 0% means an efficacy which corresponds to that of the untreated control, while an efficacy of 100% means that no disease is observed.
For `OC(Cc1ccnnc1Cl)(Cn1cncn1)C1(Cl)CC1` (centres unmarked) [Example I-45], the Eff. % was 100%. With `CC(CF)(CF)C(O)(Cc1ccnc(Cl)c1F)Cn1cncn1` (centres unmarked) [Example I-61] the Eff. % was 100%.

Tested on: Fusarium graminearum
Experiment: not given
Format: in vivo
Details: 500 ppm of active ingredient; barley, preventive; evaluated 5 days after inoculation
With `OC(CCc1ccc(Cl)cc1)(Cc1ccncc1Cl)Cn1cncn1` (racemic) [Example I-69] the Eff. % was 71%. With `OC(Cc1ccnnc1Cl)(Cn1cncn1)C1(Cl)CC1` (centres unmarked) [Example I-45] the Eff. % was 100%. Molecule `CC(CF)(CF)C(O)(Cc1ccnc(Cl)c1F)Cn1cncn1` (centres unmarked) [Example I-61] has an Eff. % of 100%.

Tested on: Fusarium nivale (var. majus)
Experiment: Example J: Fusarium nivale (var. majus)-test (wheat)/preventive
Format: in vivo
Details: 500 ppm of active ingredient, preventive, evaluated 5 days after inoculation
Procedure: as §3, §4, §5
To test for preventive activity, young plants are sprayed with the preparation of active compound or active compound combination at the stated rate of application.
After the spray coating has been dried, the plants are slightly injured by using a sandblast and afterwards they are sprayed with a conidia suspension of Fusarium nivale (var. majus).
The plants are placed in the greenhouse under a translucent incubation cabinet at a temperature of approximately 10° C. and a relative atmospheric humidity of approximately 100%.
as §6
Work on `OC(Cc1ccnnc1Cl)(Cn1cncn1)C1(Cl)CC1` (centres unmarked) [Example I-45] yielded an Eff. % of 100%. In the case of `CC(CF)(CF)C(O)(Cc1ccnc(Cl)c1F)Cn1cncn1` (centres unmarked) [Example I-61], the Eff. % is reported as 100%.

Tested on: Leptosphaeria nodorum
Experiment: Example K: Leptosphaeria nodorum test (wheat)/preventive
Format: in vivo
Details: 500 ppm of active ingredient, preventive, evaluated 8 days after inoculation
Procedure: as §2, with “sprayed” for “dusted”, “a spore suspension” for “spores”, “Leptosphaeria nodorum.” for “Blumeria graminis f. sp. hordei.”
`OC(CCc1ccc(Cl)cc1)(Cc1ccncc1Cl)Cn1cncn1` (racemic) [Example I-69] gave an Eff. % of 89%. `OC(Cc1ccnnc1Cl)(Cn1cncn1)C1(Cl)CC1` (centres unmarked) [Example I-45] showed an Eff. % of 88%. For `CC(CF)(CF)C(O)(Cc1ccnc(Cl)c1F)Cn1cncn1` (centres unmarked) [Example I-61], the Eff. % was 75%.

Tested on: Phakopsora pachyrhizi
Experiment: Example L: Phakopsora test (soybeans)/preventive
Format: in vivo
Details: 10 ppm of active ingredient, preventive, evaluated 7 days after inoculation
For `OC(Cc1ccnnc1Cl)(Cn1cncn1)C1(Cl)CC1` (centres unmarked) [Example I-45], the Eff. % was 93%. With `CC(CF)(CF)C(O)(Cc1ccnc(Cl)c1F)Cn1cncn1` (centres unmarked) [Example I-61] the Eff. % was 80%.

Same assay, conditions: 100 ppm of active ingredient, preventive, evaluated 7 days after inoculation
In the case of `OC(CCc1ccc(Cl)cc1)(Cc1ccncc1Cl)Cn1cncn1` (racemic) [Example I-69], the Eff. % is reported as 91%.

Tested on: Venturia inaequalis
Experiment: Example O: Venturia test (apples)/preventive
Format: in vivo
Details: 100 ppm of active ingredient, preventive, evaluated 10 days after inoculation
Procedure: Solvent: 24.5 parts by weight of acetone • 24.5 parts by weight of dimethylacetamide Emulsifier: 1 part by weight of alkylaryl polyglycol ether To produce a suitable preparation of active compound, 1 part by weight of active compound is mixed with the stated amounts of solvent and emulsifier, and the concentrate is diluted with water to the desired concentration. To test for preventive activity, young plants are sprayed with the preparation of active compound at the stated rate of application.
For `OC(CCc1ccc(Cl)cc1)(Cc1ccncc1Cl)Cn1cncn1` (racemic) [Example I-69], the Eff. % was 100%.

Tested on: not given
Experiment: not given
Details: pH 2.7
For `OC(CCc1ccc(Cl)cc1)(Cc1ccncc1Cl)Cn1cncn1` (racemic) [Example I-69], the LogP was 2.40^[a]. With `OC(Cc1ccnnc1Cl)(Cn1cncn1)C1(Cl)CC1` (centres unmarked) [Example I-45] the LogP was 1.31^[a]. In the case of `CC(CF)(CF)C(O)(Cc1ccnc(Cl)c1F)Cn1cncn1` (centres unmarked) [Example I-61], the LogP is reported as 1.87^[a].

— US9822099B2, “Triazole derivatives” (priority 2013, dated 2017)
